This note sets out measurements from patent US20170037028A1 (BAYER PHARMA AKTIENGESELLSCHAFT, priority 2013, published 2017).

Molecules are shown by their SMILES.

This experiment deals with T1, GLUT1 (Homo sapiens, UniProt P11166).
T1 sequence (P11166 1-492): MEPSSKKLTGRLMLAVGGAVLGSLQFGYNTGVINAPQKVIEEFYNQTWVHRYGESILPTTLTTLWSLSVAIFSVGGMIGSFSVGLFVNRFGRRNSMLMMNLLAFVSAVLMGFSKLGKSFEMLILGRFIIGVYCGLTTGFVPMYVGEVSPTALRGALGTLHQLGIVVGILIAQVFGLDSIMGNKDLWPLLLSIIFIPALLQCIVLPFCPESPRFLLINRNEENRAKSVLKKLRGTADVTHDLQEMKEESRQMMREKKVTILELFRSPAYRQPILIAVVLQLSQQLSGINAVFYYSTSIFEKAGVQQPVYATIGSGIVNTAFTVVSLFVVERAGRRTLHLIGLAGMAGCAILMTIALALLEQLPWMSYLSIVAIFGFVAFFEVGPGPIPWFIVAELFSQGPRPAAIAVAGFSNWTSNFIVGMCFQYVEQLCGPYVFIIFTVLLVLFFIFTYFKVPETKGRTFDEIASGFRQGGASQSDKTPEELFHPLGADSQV
Kind of experiment: Indirect measurement of GLUT1 activity by quantification of intracellular ATP levels (glucose induced ATP increase). Type of experiment: cell-based. The arrangement: endogenous in cells; host or cells: DLD1 or CHO-K1. The following applies: read-out: IC50 regarding glucose induced ATP increase (GLUT1 inhibition). The procedure, abridged: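 DLD1 or CHO-K1 cells were starved overnight in glucose-free medium with 1% FCS, then combined with an oxidative phosphorylation inhibitor. GLUT1 activity was read as glucose-induced ATP increase, GLUT2 as fructose-induced. Intracellular ATP was quantified by CellTiter-Glo luminescence.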
As to `Cc1c(NC(=O)c2cc(C(N)=O)nc3cc(F)c(Cl)cc23)c(C(F)(F)F)nn1Cc1ccc(C#N)cn1` [Example 359, 6-chloro-N^4-{1-[(5-cyanopyridin-2-yl)methyl]-5-methyl-3-(trifluoromethyl)-1H-pyrazol-4-yl}-7-fluoroquinoline-2,4-dicarboxamide], the IC50 (commonly the concentration needed to halve the response being measured) stood at 1.3 nM.
On to `Cc1c(NC(=O)c2cc(C(N)=O)nc3cc(F)c(Cl)cc23)c(C(F)(F)F)nn1Cc1c(F)cccc1F` [Example 1630], for which the IC50 was found to be 4 nM.
Take `CNS(=O)(=O)c1cc(C(=O)Nc2c(C)nn(Cc3ccc(C#N)cc3)c2C)c2ccccc2n1` [Example 1575]: the IC50 is 37.9 nM.
On to `Cc1c(NC(=O)c2cc(C(=O)NCCCO)nc3cc(F)ccc23)c(C(F)(F)F)nn1Cc1ccc(C#N)cc1` [Example 341, N^4-[1-(4-cyanobenzyl)-5-methyl-3-(trifluoromethyl)-1H-pyrazol-4-yl]-7-fluoro-N^2-(3-hydroxypropyl)quinoline-2,4-dicarboxamide], for which the IC50 was 290 nM.
`CNC(=O)N1CCC(Cn2nc(C)c(NC(=O)c3cc(C(F)(F)F)nc4ccc(Br)cc34)c2C)CC1` [Example 1111]: the IC50 came to 56.8 nM.
In the case of `Cc1nn(Cc2cc(F)ccc2F)c(C)c1NC(=O)c1cc(C(F)(F)F)nc2c(Cl)cc(Cl)cc12` [Example 1295], the IC50 came out at 8150 nM.
As for `Cc1c(NC(=O)c2cc(C(N)=O)nc3cccc(F)c23)c(C(F)(F)F)nn1Cc1ccc(F)cc1F` [Example 1440], the IC50 was 5.4 nM.
The same measure for `CNC(=O)c1nn(Cc2ccc(F)cc2)c(C)c1NC(=O)c1cc(C(F)(F)F)nc2ccc(Br)cc12` [Example 1126]: 80 nM; for `COc1cc(C(=O)Nc2c(C(F)(F)F)nn(Cc3ccncc3C#N)c2C)c2ccccc2n1` [Example 1188]: 290 nM.
Regarding `Cc1nn(Cc2ccc(C(=O)N[C@H]3CC[C@H](O)CC3)cc2)c(C)c1NC(=O)c1cc(C(F)(F)F)nc2ccc(Br)cc12` [Example 1053], the IC50 was found to be 13.7 nM.
Consider `Cc1nn(C(C)c2ccc(F)cc2)c(C)c1NC(=O)c1cc(C(N)=O)nc2ccccc12` (racemic) [Example 1364], for which the IC50 turned out to be 125 nM.
`Cc1nn(Cc2ccc(C(=O)N[C@H]3CC[C@@H](O)CC3)cc2)c(C)c1NC(=O)c1cc(C(F)(F)F)nc2ccc(Br)cc12` [Example 1062]: the IC50 was 16.4 nM.
For the compound `Cc1c(NC(=O)c2cc(C(F)(F)F)nc3ccc(Br)cc23)c(C(F)(F)F)nn1CCc1ccc(F)cc1` [Example 1373], the IC50 was determined as 1990 nM.
The value for `Cc1nn(Cc2ccc(CC(=O)NCCO)cc2)c(C)c1NC(=O)c1cc(C(F)(F)F)nc2ccc(Br)cc12` [Example 159, 6-bromo-N-[1-(4-{2-[(2-hydroxyethyl)amino]-2-oxoethyl}benzyl)-3,5-dimethyl-1H-pyrazol-4-yl]-2-(trifluoromethyl)quinoline-4-carboxamide] was 875 nM; that for `Cc1nn(Cc2cccc(F)c2)c(C)c1NC(=O)c1cc(C(F)(F)F)nc2c(Cl)cc(Cl)cc12` [Example 104, 6,8-dichloro-N-[1-(3-fluorobenzyl)-3,5-dimethyl-1H-pyrazol-4-yl]-2-(trifluoromethyl)quinoline-4-carboxamide] was 519 nM; that for `Cc1nn(Cc2ccc(C(=O)NC(C)(CO)CO)cc2)c(C)c1NC(=O)c1cc(C(F)(F)F)nc2ccc(Br)cc12` [Example 1096] was 41.1 nM.
Take `Cc1c(NC(=O)c2cc(C(N)=O)nc3cccc(F)c23)c(C(F)(F)F)nn1Cc1cccc(C(N)=O)c1` [Example 1602]: the IC50 was 29.3 nM.
The value for `Cc1c(NC(=O)c2cc(C(N)=O)nc3c(F)cccc23)c(C(F)(F)F)nn1Cc1ccc(C#N)cc1` [Example 247, N^4-[1-(4-cyanobenzyl)-5-methyl-3-(trifluoromethyl)-1H-pyrazol-4-yl]-8-fluoroquinoline-2,4-dicarboxamide] was 4.9 nM; that for `Cc1cc(C(=O)Nc2c(C)nn(Cc3ccc(F)cc3)c2C)c2cccc(C#N)c2n1` [Example 1308] was 16900 nM; that for `COCc1noc(Cn2nc(C)c(NC(=O)c3cc(C(F)(F)F)nc4ccc(Br)cc34)c2C)n1` [Example 1507] was 711 nM.
